Consider seven compounds from US20230092163A1, “COMPOUNDS AND COMPOSITIONS FOR TREATING CONDITIONS ASSOCIATED WITH STING ACTIVITY” (IFM Due, Inc., priority 2019, published 2023).

The pEC50 is the negative decadic logarithm of the EC50, by convention in mol/L. Higher therefore signals a low EC50.

The target in this test is STING (Homo sapiens, UniProt Q86WV6, G230A/H232R/R293Q/R71H). The test can be described thus: STING reporter assay: THP1-Dual KO-IFNAR2 cells stimulated with 2′3′cGAMP, luciferase reporter activity. Format: cell-based. Particulars: 15 μM 2′3′cGAMP, 24h, class symbols. In outline:
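THP1-Dual KO-IFNAR2 cells (2×10E6 cells/mL) treated with compounds at 0.0017-100 μM, then stimulated with 2′3′cGAMP (15 μM final) delivered by Lipofectamine 2000; 24 h at 37° C. Supernatant luciferase read by QUANTI-Luc Plus luminescence; EC50 from dose-response.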

pEC50: −log10 of the molar value.

Chain of STING (Q86WV6 whole entry R71H/G230A/H232R/R293Q): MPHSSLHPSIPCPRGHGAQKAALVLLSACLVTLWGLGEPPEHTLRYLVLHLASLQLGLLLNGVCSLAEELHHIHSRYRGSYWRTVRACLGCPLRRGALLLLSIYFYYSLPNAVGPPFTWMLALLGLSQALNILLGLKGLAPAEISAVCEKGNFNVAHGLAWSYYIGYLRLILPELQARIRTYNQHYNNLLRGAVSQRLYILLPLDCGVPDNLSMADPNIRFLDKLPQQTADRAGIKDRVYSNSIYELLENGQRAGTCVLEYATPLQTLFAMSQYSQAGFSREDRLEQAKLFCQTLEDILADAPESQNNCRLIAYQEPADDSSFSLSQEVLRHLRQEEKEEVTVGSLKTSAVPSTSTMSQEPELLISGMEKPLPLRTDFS

As for `C1=C(c2ccc3ccc(Nc4ccc5cc[nH]c5c4)nc3c2)CCCC1` [Compound 606, 7-(cyclohex-1-en-1-yl)-N-(1H-indol-6-yl)quinolin-2-amine], the pEC50 was 5.30 to 6.00. As for `Brc1ccc2ccc(Nc3ccc4cc[nH]c4c3)nc2c1` [Compound 607], the pEC50 is 6.00 to 6.70. Turning to `Cn1ccc2ccc(Nc3ccc4ccc(C(F)(F)F)cc4n3)cc21` [Compound 608, N-(1-methyl-1H-indol-6-yl)-7-(trifluoromethyl)quinolin-2-amine], the pEC50 was 4.00 to 5.30.

`FC(F)(F)c1cccc(Nc2ccc3cc[nH]c3c2)n1` [Compound 609]: the pEC50 is 4.00 to 5.30.

`CCCCc1ccc(Nc2c(Nc3ccc4c(c3)CC=N4)c(=O)c2=O)cc1` [Compound 618] had a pEC50 of 5.30 to 6.00. As to `O=c1c(Nc2ccc(C(F)(F)F)cc2)c(Nc2ccc3[nH]ccc3c2)c1=O` [Compound 619], the pEC50 was 5.30 to 6.00. The result for `O=c1c(Nc2ccc(C(F)(F)F)cc2)c(Nc2ccc3cc[nH]c3c2)c1=O` [Compound 620] reads 5.30 to 6.00.
